# From paper PMC6337631, “Effective Tetradentate Compound Complexes against Leishmania spp. that Act on Critical Enzymatic Pathways of These Parasites” (Molecules, 2018)
# What was measured:
# [1] = tested on: Leishmania infantum promastigote forms; assay: Promastigote test (extracellular forms), L. infantum; type: cell-based; settings: Leishmania infantum; 72 h; 100 µM to 1 µM; mean ± SD of four determinations
# Procedure: (§1) Promastigote forms of three different Leishmania spp., L. donovani (MHOM/PE/84/LC26), L. infantum (MCAN/ES/2001/UCM-10) and L. braziliensis (MHOM/BR/1975/M2904), were cultured in vitro in Medium Trypanosomes Liquid (MTL) supplemented with 10% inactivated foetal calf serum (FCS) in an air atmosphere at 28 °C, in Roux flasks (Corning, Manassas, VA, USA) with a surface area of 75 cm^2, according to [33].
# (§2) The compounds and the reference drug Glu were dissolved in DMSO (Panreac, Barcelona, Spain) and tested from 100 µM to 1 µM with 0.1% (v/v) DMSO final concentration in plates. Therefore, controls were prepared including 0.1% (v/v) of this component, as previously described.
# (§3) Promastigote forms were collected in the exponential growth phase and seeded at 1 × 10^5 parasites/mL in 24-well microplates (Nunc, Naperville, IL, USA), after adding each compound at concentrations from 100 µM to 1 µM and cultured in 500 μL/well volumes at 28 °C. After 72 h incubation, the leishmanicidal activity was assessed using a Neubauer haemocytometric chamber in comparison with the control cultures. […] Each drug concentration was tested in triplicate in four separate determinations.
# [2] = tested on: Leishmania donovani amastigote forms; assay: Amastigote test (intracellular forms in J774.2 macrophages), L. donovani; type: cell-based; settings: Leishmania donovani, 72 h, mean ± SD
# Procedure: as §1, §2
# (§4) J774.2 macrophages were grown and seeded at a density of 1 × 10^4 cells/well in 24-well microplates (Nunc) with rounded coverslips on the bottom and cultured for 48 h in humidified 95% air, 5% CO2 atmosphere at 37 °C in Minimal Essential Medium (MEM) with 2 mM glutamine and 20% (v/v) inactivated FCS. Adherent macrophages were infected with metacyclic promastigotes in the stationary growth phase of L. donovani, L. infantum and L. braziliensis at a multiplicity of infection (MOI) ratio of 1:10 and maintained for 24 h. Non-phagocytosed parasites were removed by washing, and after addition of the testing compounds at concentrations from 100 µM to 1 µM, cultured in 500 μL/well volumes. Control cultures were also included. After 72 h incubation, leishmanicidal activity was assessed based on the number of amastigotes in treated and untreated cultures in methanol-fixed and Giemsa-stained preparations by analyzing 500 host cells distributed in randomly chosen microscopic fields. The leishmanicidal effect was calculated as described to determine the leishmanicidal activity in the promastigote forms. Each drug concentration was tested in triplicate in four separate determinations.
# [3] = tested on: L. infantum promastigotes; assay: Ultrastructural alterations by TEM, L. infantum; type: cell-based, Leishmania infantum; settings: 72 h at IC25 concentration
# Procedure: (§5) Parasites were cultured at a density of 5 × 10^5 cells/mL with medium containing the tested compounds at IC25 concentrations. After 72 h at 28 °C, the cultures were processed using a technique previously described and analysed by TEM (LIBRA 120 PLUS, Zeiss, Barcelona, Spain).
# [4] = tested on: Leishmania braziliensis amastigote forms; assay: Amastigote test (intracellular forms in J774.2 macrophages), L. braziliensis; type: cell-based; settings: Leishmania braziliensis, 72 h, mean ± SD
# Procedure: as §1, §2, §4
# [5] = tested on: Leishmania donovani infection of J774.2 macrophages; assay: Infectivity assay, L. donovani; type: cell-based; settings: IC25 concentration
# Procedure: After the initial in vitro studies we were interested in finding out if the six most leishmanicidal compounds could also prevent the infection of host cells. For this reason, we conducted an assay in which the J774.2 macrophages were exposed to the metacyclic promastigotes and the compound at IC25 concentration at the same time. The propagation of the parasitic infection was determined by measuring the infection rate and the average number of amastigotes per macrophage cell present during the 10-day treatment period. In addition, the endocytic (short-time of infection) and infection (long-time of infection) indexes were calculated.
# Adherent macrophages were grown, seeded and infected with metacyclic promastigotes as mentioned above. The compounds at IC25 concentrations (calculated using linear regression analysis from the Kc values of the concentrations employed) were added immediately after infection and incubation was performed for 12 h at 37 °C in humidified 95% air, 5% CO2 atmosphere. in humidified 95% air, 5% CO2 atmosphere at 37 °C Non-phagocytosed parasites and drugs were removed by washing, and then the infected cultures were grown for 10 days, adding fresh culture medium every 48 h, according to [35]. Amastigotes per macrophage count was determined in methanol-fixed and Giemsa-stained preparations as mentioned above every 48 h. The infection rate (defined as the percentage of infected cells), the average number of amastigotes per macrophage, and the endocytic and infection indexes (calculated by multiplying the infection rate by the average number of amastigotes per macrophage) were determined. Each drug concentration was tested in triplicate in four separate determinations.
# [6] = tested on: L. donovani promastigotes; assay: Ultrastructural alterations by TEM, L. donovani; type: cell-based, Leishmania donovani; settings: 72 h at IC25 concentration
# Procedure: as §5
# [7] = tested on: Leishmania braziliensis promastigote forms; assay: Promastigote test (extracellular forms), L. braziliensis; type: cell-based; settings: Leishmania braziliensis; 72 h; 100 µM to 1 µM; mean ± SD
# Procedure: as §1, §2, §3
# [8] = tested on: Leishmania donovani promastigote forms; assay: Promastigote test (extracellular forms), L. donovani; type: cell-based; settings: Leishmania donovani; 72 h; 100 µM to 1 µM; mean ± SD
# Procedure: as §1, §2, §3
# [9] = tested on: L. donovani promastigotes; assay: Metabolite excretion by 1H-NMR, L. donovani; type: cell-based, Leishmania donovani; settings: IC25 concentration, 72 h, vs untreated
# Procedure: Trypanosomatids catabolizes glucose at a high rate, excreting into the medium partly oxidized end products such as acetate, succinate, L-alanine or L-lactate.
# Cultures of L. donovani, L. infantum and L. braziliensis promastigotes were seeded in culture flaks at 5 × 10^5 cells/mL, and after the addition of the compounds at IC25 concentrations at 28 °C. Control cultures were also included. After 72 h of incubation, parasites were centrifuged at 400 × g for 10 min, and supernatants were collected in order to determine the excreted metabolites by ^1H-NMR. Chemical shifts were expressed in parts per million (ppm) using sodium 2,2-dimethyl-2-silapentane-5-sulphonate as the reference signal. The One-dimensional ^1H-NMR spectra were acquired with a VARIAN DIRECT DRIVE 400 MHz Bruker spectrometer (Rheinstetten, Germany) with an AutoX probe using D2O as solvent. The chemical shifts used to identify the respective metabolites were consistent with those described previously by some of the authors. The spectral region of 1.0–5.5 ppm was bucketed into a frequency window of 0.1 ppm. The peak (2.6 ppm) corresponding to DMSO was removed before binning, and the regions corresponding to water (4.5–5.5 ppm) and glucose (3.4–3.8 ppm) were excluded during binning to avoid artefacts due to pre-saturation. The aromatic region was excluded because the signal to noise ratio in this region was poorer in comparison to the aliphatic region. The resulting integrals were normalised to the working region (1.0–3.4) ppm of the spectrum to correct for inter-sample differences in dilution. The binning and normalisations were achieved using Mestrenova 9.0 software (Santiago de Compostela, Spain). The matrix obtained in Mestrenova was imported into Microsoft Excel (Redmond, WA, USA) for further data analyses.
# [10] = last day of the experiment (day 10)
smiles,measurement,setting,value
CN(C)c1ccnc(CN2CCC[C@H]2[C@@H]2CCCN2Cc2cc(N(C)C)ccn2)c1 [Compound 7],IC50,[1],12.3 ± 2.2 µM
same,IC50,[2],1100 ± 200 nM
same,ultrastructural alterations of L. infantum promastigotes (TEM),[3],most destructive compounds
same,IC50,[4],8.5 ± 0.3 µM
same,"day at which the decline in the infection rate appeared, L. donovani",[5]; 10-day infectivity assay,2 days
same,"percentage of decrease in infection rate in comparison to the control, L. donovani",[5]; [10],88%
same,"percentage of decrease in number of amastigotes per macrophage cell in comparison to the control, L. donovani",[5]; [10],74%
same,ultrastructural alterations of L. donovani promastigotes (TEM),[6],"cytoplasmic emptiness, none or a few ribosomes, swollen and disintegrated mitochondria and abundant lipid and non-lipid vacuoles"
same,IC50,[7],11.7 ± 0.8 µM
same,IC50,[8],8.1 ± 3.9 µM
same,"Excretion variation ACETATE, L. donovani",[9],> 50%
same,"Excretion variation L-ALANINE, L. donovani",[9],64%
same,"Excretion variation SUCCINATE, L. donovani",[9],> 50%
